From a melting point compilation (Tetko et al.; mined from patent text by program, amines drawn as free bases though some values may be those of a salt)

melting point [°C] | Structure (SMILES)
53 to 54 | CCCCCCCCCCCCSCCCN(CCO)CCO
223 to 226 | O=c1c2cccc3c2n(c(=O)n1CC(O)CO)-c1cc(C(F)(F)F)ccc1S3(=O)=O (stereo not drawn)
161 to 163 | CN(C)C(=O)C(C)(C)n1cc(Cl)c(-c2ccccc2Cl)n1
130 to 132 | COC(=O)[C@H](CC(C)C)NC(=O)[C@@H](O)[C@@H](Cc1ccc(SC)cc1)NC(=O)OCc1ccccc1
231 to 233 | CS(=O)(=O)c1ccc(C2SCC(=O)N2c2ccc(Cl)cc2)cc1 (stereo not drawn)
146 | COc1ccnc(CSc2nc3c(C(F)(F)F)cccc3[nH]2)c1
157 to 159 | CCOC(=O)c1[nH]cc(-c2ccc(F)cc2)c1-c1ccc(F)cc1
200 | NC(=O)N1CCNC1=O
174 to 175 | COc1ccc(Cl)c(Oc2c(Cl)ncnc2NS(=O)(=O)c2ccc(C(C)C)cn2)c1
183 to 185 | CCC[C@H](N[C@@H](C)C(=O)N1N=C(C(C)(C)C)S[C@H]1C(=O)O)C(=O)OCC
141 to 145 | O=C(/C=C/c1c[nH]c2ccccc12)c1ccccn1
110 to 112 | N#CCOc1ccc(C(=O)c2ccccc2)c(Cl)c1Cl
165 to 166 | COc1ccc(COc2cccnc2NC(=N)Nc2ccc(Cl)cc2)cc1
213 to 215 | COc1cc(OC)c(-c2ccc(C)s2)cc1C=CC(=O)c1ccc(C(=O)O)cc1
220 | N#Cc1ccc(-c2cnc(F)c(OC3SCC(O)C(O)C3O)c2)cc1 (stereo not drawn)
149 to 150 | O=C1Oc2ccc(Br)cc2C1c1ccc(Cl)cc1Cl (stereo not drawn)
160 to 162 | N#Cc1ccccc1OC(=O)CCC1CCN(C(=N)N)CC1
284 to 296 | CC1(C)Cc2c(ccc3c2C(c2cccc(-c4ccc(C(N)=O)cc4)c2)=NCC3(C)C)O1
159 to 160 | O=Cc1c(-c2ccccc2)nn(-c2ccccc2)c1-c1ccccc1
120 | CS(=O)(=O)c1ccc(-c2cc(=O)cc(CO)o2)cc1
102 to 104 | O=C(OCc1ccc([N+](=O)[O-])cc1)N1CCC(I)CC1
101 to 103 | Cn1c(C(=O)OC(C)(C)C)c(O)c2cc(OCc3ccccc3)ccc21
97.3 to 98.2 | Nc1c(-c2ccc(O)cc2)ncnc1-c1ccc(Cl)cc1Cl
182 to 183 | Cc1nc(-c2ccccn2)c2nc(-c3ccccc3)cc-2[nH]1

melting point [°C] | Structure (SMILES)
111 to 112 | CCCC(CCC)C(=O)NCC(=O)NCCCCCCNC(=O)n1cc(F)c(=O)[nH]c1=O
86 to 88 | CC(=O)OC[C@H]1OCC(=O)[C@@H](OC(C)=O)[C@@H]1OC(C)=O
250 | O=C(CC1=C(n2nc(-c3c(-c4ccccc4)nn4ccccc34)ccc2=O)CCCC1)N1CCN(C(c2ccccc2)(c2ccccc2)c2ccccc2)CC1
128 to 130 | CCCSc1cn(C)cc(-c2ccc(Cl)c(C(F)(F)F)c2)c1=O
216 to 217 | C#Cc1cc(CC)c(-c2c(O)c(C)nn(C)c2=O)c(CC)c1
193 | OP(O)C(NC(c1ccccc1)c1ccccc1)c1ccco1 (stereo not drawn)
188 to 189 | CCCNC(=O)CCn1c(C)nc2c(N)nc3ccccc3c21
98 to 100 | CCN(CC)CCOc1ccc(NC(=O)C#Cc2ccc(Cl)cc2Cl)cc1Cl
35 to 37 | CCOC(=O)C(C)Oc1ncn(-c2cccc(F)c2)n1 (stereo not drawn)
225 to 226 | O=C(O)C1=Cc2cc(Br)cc(Br)c2OC1C(F)(F)F (stereo not drawn)
189 to 190 | CNc1nc(SC)ncc1C#N
180 | COc1cccc2cc(C(=O)c3ccc(Cl)c(N)c3)oc12
190 to 192 | COc1ccc(C(=O)Nc2c(C)c(C)c3c(c2C)C(c2ccccc2)C(C)(C)O3)cc1 (stereo not drawn)
119 | Cc1noc(-c2ccc(S(C)(=O)=O)cc2)c1-c1ccc(-c2cscn2)cc1
138 | CC(=O)Nc1cccc(C(C)(C)O)c1CO
94 | O=C1NCCc2sccc21
138 to 140 | CSc1cc2ncnc(Cl)c2s1
48 to 50 | CC(=S)c1ccc(-c2ccccc2)cc1
90 to 91 | COc1ccc(C2(C#Cc3cc(N4CN=C(C)O4)cs3)CCC(=O)CC2)cc1OC1CCCC1
69 to 70 | COc1cc([N+](=O)[O-])c(CO)c(OC)c1OC
65 | Cc1cc(-n2cccn2)c2cccc(OCc3c(Cl)ccc(S(=O)(=O)N4CCC[C@H]4CO)c3Cl)c2n1
181 to 182 | O=c1c(Br)c(SCc2ccccc2)ccn1Cc1ccccc1
97 to 98 | CCOC(=O)C1CSC(c2nsc3ccc(-n4c(=O)cc(C(F)(F)F)n(C)c4=O)cc23)N1 (stereo not drawn)
167 | COc1ccc(-c2nc(N)ncc2-c2ccc(=O)n(C(C)C)n2)cc1OC

melting point [°C] | Structure (SMILES)
122 to 123 | CSc1ccc(-c2c(C#N)cnn2-c2ccc(F)cc2)cc1
122 | CCN1CCCC1CNC(=O)c1cccc(N(C2CN(C(c3ccc(Cl)cc3)c3ccc(Cl)cc3)C2)S(C)(=O)=O)c1 (single isomer, unassigned; (+))
117 to 119 | O=C(NC1CCN(CCCc2ccc(F)cc2)CC1)C1=Cc2cnc3cccc(n23)S1
174 to 176 | CC1C(=O)c2c(cc(OCC(=O)O)c(Cl)c2Cl)C1C (stereo not drawn)
234 to 236 | CN1CCN(c2cccc(Nc3nc4c(-c5ccc(S(C)(=O)=O)cc5)cccn4n3)c2)C(=O)C1
168 to 170 | COc1cc2c(cc1Nc1ncc(Cl)c(N[C@@H]3[C@H](C(N)=O)[C@H]4C=C[C@@H]3C4)n1)CCOC(=O)N2C
85 | CCCCOc1ccc2ccccc2c1-c1c(OCCCC)ccc2ccccc12
248 | CCCC(=O)Nc1n[nH]c2c([N+](=O)[O-])c(Br)ccc12
169 to 171 | Cc1ccc2c(n1)sc1c(=O)n(C)nnc12
134 to 136 | O=S1NC(Cc2csc3ccccc23)=NO1 (stereo not drawn)
294 | Cn1nc(-c2ccc([N+](=O)[O-])o2)c2c(NO)ncnc21
> 250 | Cc1c(O)cc(N2C(=O)c3ccccc3C2=O)cc1C(=O)O
90 to 92 | O=C(Oc1ccccc1Br)c1cc(-c2ccccc2)cn1CCc1ccccc1Br
98 to 101 | CC1(C)SC(c2ccccc2OCCO[N+](=O)[O-])NC1C(=O)O (stereo not drawn)
236 to 237 | CN(C)Cc1ccc2nc(NC(=O)c3ccc(C(C)(C)C)cc3)cn2c1
106 to 108 | CC(=O)c1cc(Oc2ncccc2C(=O)NC[C@H]2CC[C@H](C(C)(C)O)CC2)ccc1Cl
110 to 112 | CCOC(=O)C1=C(C)N=C(SCc2ccccc2)N(C(=O)OCC)C1c1ccccc1[N+](=O)[O-] (stereo not drawn)
60 | CCCCCc1ccc(CCc2ccc(-c3ccc(OC(F)(F)F)cc3)cc2)cc1
233 to 235 | CCC(=O)NC[C@H]1CN(c2ccc3c(c2)CCCc2cn[nH]c2-3)C(=O)O1
159 to 161 | CCCC1=C(C(=O)OCC)C(c2cccc3c2OCCC3)c2c[nH]nc2N1 (stereo not drawn)
128 | CNC(Cc1ccccc1)c1nc(C(=O)NCc2ccccc2)no1 (stereo not drawn)
105 | CCCCCCCCCCCCn1nnc(C(C(=O)Nc2cc(C)c(O)c(C)c2C)c2ccccc2)n1 (single isomer, unassigned; (+))
80 to 87 | COc1cc(N2CCC(N3CCOCC3)C2)ccc1Nc1ncc2ccc(-c3ccccc3OC)n2n1 (stereo not drawn)
114 to 115 | CC1(C)C(c2ccc(S(C)(=O)=O)cc2)=C(c2ccccc2)C1(C)O (stereo not drawn)

melting point [°C] | Structure (SMILES)
152 to 156 | CCOC(=O)C1CN(C(C)=O)CCN1CC=CC(=O)Nc1cc2c(Nc3ccc(F)c(Cl)c3)ncnc2cc1OCC1CC1 (stereo not drawn)
148 | CC(=O)N(C(C)=O)c1c(OCc2ccccc2)cc(Br)cc1[N+](=O)[O-]
91 to 92 | CCc1c(Oc2cc(C)cc(C)c2)[nH]c(=O)[nH]c1=O
208 to 210 | COc1c([N+](=O)[O-])c([N+](=O)[O-])c(OC)c2[nH]c(C(F)(F)F)nc12
58 to 59 | CC(C)(C)c1ccc2c(C#N)ccc(C#N)c2c1
95 to 98 | CC(C)C(c1cncnc1C(F)(F)F)N(C)C(=O)N(C)Cc1ccc(Cl)cc1 (stereo not drawn)
232 to 234 | Cn1cc(-c2cc3nccnc3[nH]2)cn1
127 to 128 | CCN(CC)CCC1CCCN1CCNC(=O)N1c2ccccc2C(=O)Nc2cccnc21 (stereo not drawn)
194 | N#CCC(=O)N[C@H]1CC[C@H](CCN2CCC(c3cccc4c3CCO4)CC2)CC1
114 to 116 | CCCc1ccc(Cc2c(C(F)(F)F)[nH][nH]c2=O)cc1
163 to 165 | CCNP(=O)(Cc1ccc(NC(=O)C2=Cc3cc(C4CCCCC4)ccc3CC2)cc1)NCC
114 to 115 | O=C(CCC1CCNCC1)c1cc2c3c(c1)CCN3C(=O)CC2
146 to 147 | COc1ccc(Cn2cc(C)c3ccc(C(=O)c4ccccc4)cc32)cc1
241 to 243 | COc1ccc2c(c1)c1c3c(c(-c4ccccc4)cc1n2CCCO)C(=O)NC3=O
190 | COc1ccc2c(c1OC)CN(c1nc(N)c3cc(OC)c(OC)c(OC)c3n1)CC2
138 to 140 | O=C(CBr)c1cc(O)c(O)c([N+](=O)[O-])c1
178 to 180 | O=Cc1ccc2c(c1)OCC(=O)N2
81 to 83 | Cc1c(C)c2c(c(C)c1O)CCC(C)(C#Cc1cccc(C(F)(F)F)c1)O2 (stereo not drawn)
202 to 204 | C#CCC(C)C(=O)N1c2ccccc2C(=O)Nc2cccnc21 (stereo not drawn)
254 | O=C1CCC2=C1C(c1ccc(F)c(C(F)(F)F)c1)C1=C(CCS1)N2 (stereo not drawn)
79 | CCCCCCCc1ccc(-c2ccc(N)cc2)cc1
203 to 205 | Cn1cccc1C(=O)c1[nH]c2ccc(Cl)cc2c1CC(=O)O
204 to 205 | Cc1cc2c(-c3ccccc3C)c(C(=O)O)c(=O)n(C)c2cc1Cl

Structure (SMILES) | melting point [°C]
CCOC(=O)NC(C(=O)OC)=C1CN=C(c2ccccc2F)c2cc(Cl)ccc2N1 | 188 to 191
O=C(N=C1SCCN1Cc1ccc(Cl)nc1)c1ccccc1 | 133
O=C1CN2CCC1CC2 | 58
